In patent US9802891B2, “Crystal forms of azetidinone compounds and preparing methods thereof” (Zhejiang Hisun Pharmaceutical Co., Ltd., priority 2012, dated 2017):

Assays:
Long term stability test = assay type: physicochemical; settings: 25° C.±2° C., relative humidity 60%±10%; for Content of C25H21F2NO3, based on anhydride: shall be no less than 97.0%; for Relevant substances: Single maximum unknown foreign matter: shall not exceed 0.3%; for Relevant substances: Total foreign matter: shall not exceed 1.5%; for Moisture: shall not exceed 2.0%
Description: In accordance with the stability test guiding principles (Chinese Pharmacopoeia 2010 Edition 2—Annex XIX C), prepare the samples of the crystal form I of the compound of formula A described in embodiment 6 in a commercial package, place the samples in a thermotank at the temperature of 25° C.±2° C. with the relative humidity of 60%±10%, take each sample from the samples once at the ends of the third month, the sixth month and the ninth month respectively to detect the key stability inspection items of each sample and compare with the result of the sample at the zero day, wherein see Table 3 for the comparisons.

[1] = Accelerated stability test; assay type: physicochemical; settings: 40° C.±2° C., relative humidity 75%±5%; for Melting point / Content of C25H21F2NO3, based on anhydride / Relevant substances: Single maximum unknown foreign matter / Relevant substances: Total foreign matter / Moisture / Relevant substances: Diastereomer: commercial package; for Melting point: limit 149-153° C.; for Content of C25H21F2NO3, based on anhydride: shall be no less than 97.0%; for Relevant substances: Single maximum unknown foreign matter: shall not exceed 0.3%; for Relevant substances: Total foreign matter: shall not exceed 1.5%; for Moisture: shall not exceed 2.0%; for Relevant substances: Diastereomer: shall not exceed 1.0%
Description: In accordance with the stability test guiding principles (Chinese Pharmacopoeia 2010 Edition 2—Annex XIX C), prepare the sample of the crystal form I of the compound of formula A described in embodiment 6 in a commercial package, place the samples in a thermotank at the temperature of 40° C.±2° C. with the relative humidity of 75%±5%, with the duration of 6 months, take each sample once at the ends of the first month, the second month, the third month and the sixth month respectively to detect the key stability inspection items and compare with the results of the sample at the zero day, wherein see Table 4 for the comparisons.

[2] = commercial package, month 9, shall not exceed 0.5%

## O=C1[C@H](C/C=C(\CO)c2ccc(F)cc2)[C@@H](c2ccc(O)cc2)N1c1ccc(F)cc1 [crystal form I, (3R,4S)-4-(4-hydroxyphenyl)-3-[3-(4-fluorophenyl)-4-hydroxybut-2(Z)-enyl]-1-(4-fluorophenyl)-2-azetidinone]
Long term stability test; commercial package, month 0
  Content of C25H21F2NO3, based on anhydride: 98.74%
  Relevant substances: Single maximum unknown foreign matter: 0.097%
  Relevant substances: Total foreign matter: 0.342%
  Moisture: 0.23%
Long term stability test; commercial package, month 3
  Content of C25H21F2NO3, based on anhydride: 98.99%
  Relevant substances: Single maximum unknown foreign matter: 0.1013%
  Relevant substances: Total foreign matter: 0.3488%
  Moisture: 0.41%
Long term stability test; commercial package, month 6
  Content of C25H21F2NO3, based on anhydride: 98.83%
  Relevant substances: Single maximum unknown foreign matter: 0.0956%
  Relevant substances: Total foreign matter: 0.3551%
  Moisture: 0.56%
Long term stability test; commercial package, month 9
  Content of C25H21F2NO3, based on anhydride: 98.91%
  Relevant substances: Single maximum unknown foreign matter: 0.0940%
  Relevant substances: Total foreign matter: 0.3581%
  Moisture: 0.32%
Long term stability test; [2]
  Isomer: E-isomer: 0.0161%
  Isomer: Enantiomer: 0.0587%
Long term stability test; nine month
  Long term stability, conclusion on inspection indexes: various inspection indexes of the samples do not change apparently and all meet the specifications
[1]; month 0
  Melting point: 149.8-152.1 °C
  Content of C25H21F2NO3, based on anhydride: 98.71%
  Relevant substances: Single maximum unknown foreign matter: 0.097%
  Relevant substances: Total foreign matter: 0.342%
  Moisture: 0.20%
[1]; month 1
  Melting point: 149.3-151.5 °C
  Content of C25H21F2NO3, based on anhydride: 99.11%
  Relevant substances: Single maximum unknown foreign matter: 0.1004%
  Relevant substances: Diastereomer: 0.0128%
  Relevant substances: Total foreign matter: 0.3757%
  Moisture: 0.30%
[1]; month 2
  Melting point: 149.7-152.1 °C
  Content of C25H21F2NO3, based on anhydride: 98.82%
  Relevant substances: Single maximum unknown foreign matter: 0.0856%
  Relevant substances: Diastereomer: Not detected
  Relevant substances: Total foreign matter: 0.3650%
  Moisture: 0.28%
[1]; month 3
  Melting point: 149.7-152.1 °C
  Content of C25H21F2NO3, based on anhydride: 98.78%
  Relevant substances: Single maximum unknown foreign matter: 0.0983%
  Relevant substances: Diastereomer: Not detected
  Relevant substances: Total foreign matter: 0.3717%
  Moisture: 0.37%
[1]; month 6
  Melting point: 149.5-151.9 °C
  Content of C25H21F2NO3, based on anhydride: 97.97%
  Relevant substances: Single maximum unknown foreign matter: 0.2017%
  Relevant substances: Diastereomer: Not detected
  Relevant substances: Total foreign matter: 1.0828%
  Moisture: 0.44%
[1]; 6 months
  Accelerated stability, conclusion on inspection indexes: the relevant substances are grown significantly in the sixth month and the content is reduced at a certain level; however, both of the two are within the acceptable range
